Test results from patent publication US20240246950A1, “Anilino-Pyrazole Derivatives, Compositions and Methods Thereof” (Ensem Therapeutics, priority 2022, published 2024).

Legend:
CDK1/cyclinB [1] = target: T1, CDK1/cyclinB (Homo sapiens, UniProt P06493); test: In vitro kinase Caliper assay CDK1/cyclinB; assay type: biochemical; settings: enzyme 1 nM, 28° C. 30 min
Experimental: (§1) In Vitro Kinase Caliper Assays: CDK2/CycA2, CDK2/CycE1, CDK1/cyclinB and GSK3β
(§2) 1× Kinase buffer (50 mM HEPES pH 7.5, 10 mM MgCl2, 2 mM DTT and 0.01% Brij-35) The test compounds were prepared as 10 mM stock solution in 100% DMSO. The stock solution was then serially diluted 3-fold in 100% DMSO to 10 concentrations. 200 nL of each diluted compound solution was transferred to 384-well plate in duplicate. To each well, 10 μL of enzyme solution containing either CDK2/CycA2, CDK2/CycE1, CDK1/cyclinB, or GSK3β (final concentrations 10 nM, 3 nM, 1 nM, 1 nM respectively) in 1× Kinase buffer and the mix incubated at room temperature for 10 min. To initiate each reaction, 10 μL of peptide solution containing FAM-labelled peptide with final concentration at 3000 nM (FAM-P18 (5-FAM-QSPKKG-CONH2) for CDK2/CycA2, CDK2/CycE1, CDK1/cyclinB proteins, FAM-P15 (5-FAM-KRREILSRRPpSYR—COOH) for GSK30 protein) and ATP (final concentrations 30 μM, 77 μM or 20 μM, respectively) in 1× Kinase buffer was added to each well. All reactions were incubated at 28° C. for 30 min and then terminated by the addition of 30 μL stop buffer (100 mM HEPES pH 7.5, 50 mM EDTA, 0.2% Coating Reagent #3 and 0.015% Brij-35). All samples were then subjected to analysis using Caliper EZ Reader to read conversion values. IC50 values were then calculated by plotting dose-response curves and then using the XLfit application in Excel software.

OVCAR3 = test: Cell proliferation (CyQUANT) OVCAR3; assay type: cell-based; settings: Homo sapiens, OVCAR-3, 168 h, OVCAR3, 7 days, read-out: Anti-proliferation assay: IC50 (nM) [Cell Line: OVCAR3]
Method in brief: (§3)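 Cells were seeded at 2500, 1000 or 3000 cells/well, cultured overnight, then exposed to 3-fold compound dilutions for 7 days (final DMSO at most 0.01%). CyQUANT fluorescence was read at Ex/Em 480/520 nm; % inhibition computed relative to same-plate DMSO wells.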

CDK2/CycA2 [2] = target: T2, CDK2/CycA2 (Homo sapiens, UniProt P24941); test: In vitro kinase Caliper assay CDK2/CycA2; assay type: biochemical; settings: enzyme 10 nM, 28° C. 30 min, read-out: CDK2 cyclinA2 activity assay: IC50
Experimental: as §1, §2

CDK2/CycE1 [3] = target: T3, CDK2/CycE1 (Homo sapiens, UniProt P24941); test: In vitro kinase Caliper assay CDK2/CycE1; assay type: biochemical; settings: enzyme 3 nM, 28° C. 30 min, read-out: CDK2 cyclinE1 activity assay: IC50
Experimental: as §1, §2

GSK3β [4] = target: T4, GSK3β (Homo sapiens, UniProt P49841); test: In vitro kinase Caliper assay GSK3β; assay type: biochemical; settings: enzyme 1 nM, 28° C. 30 min
T4 sequence (P49841 whole entry, species assumed): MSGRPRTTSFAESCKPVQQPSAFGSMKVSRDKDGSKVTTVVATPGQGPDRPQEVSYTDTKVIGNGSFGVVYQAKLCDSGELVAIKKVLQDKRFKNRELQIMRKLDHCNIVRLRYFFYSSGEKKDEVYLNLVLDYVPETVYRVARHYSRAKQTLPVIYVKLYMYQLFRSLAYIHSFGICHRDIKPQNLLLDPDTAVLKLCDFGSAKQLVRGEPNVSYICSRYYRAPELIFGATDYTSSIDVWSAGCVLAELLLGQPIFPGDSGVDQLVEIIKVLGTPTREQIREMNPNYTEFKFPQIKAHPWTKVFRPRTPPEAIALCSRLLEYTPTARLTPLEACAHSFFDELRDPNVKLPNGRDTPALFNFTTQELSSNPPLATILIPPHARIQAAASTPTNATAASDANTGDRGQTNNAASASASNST
Experimental: as §1, §2

TOV21G = test: Cell proliferation (CyQUANT) TOV21G; assay type: cell-based; settings: Homo sapiens, 168 h, 7 days, read-out: Anti-proliferation assay: IC50 (nM) [Cell Line: TOV21G]
Method in brief: as §3

CDK1/cyclinB [5] = target: T1, CDK1/cyclinB; test: In vitro kinase TR-FRET assay CDK1/cyclinB; assay type: biochemical; settings: enzyme 0.3 nM, ATP 56 μM
Method in brief: (§4)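 Enzymes at 3 nM (CDK2/CycA2), 0.6 nM (CDK2/CycE1), 0.3 nM (CDK1/cyclinB), 0.6 nM (GSK3β) with ATP at 27, 82, 56, 7.6 μM respectively, 50 nM ULight-4E-BP1 peptide, HEPES pH7.5; 10-point 3-fold dilutions. 1 h reaction at room temperature; Eu-anti-phospho-4E-BP1 TR-FRET (665/615 nm) read; IC50 from dose-response curves.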

GSK3β [6] = target: T4, GSK3β; test: In vitro kinase TR-FRET assay GSK3β; assay type: biochemical; settings: enzyme 0.6 nM, ATP 7.6 μM
Method in brief: as §4

CDK2/CycE1 [7] = target: T3, CDK2/CycE1; test: In vitro kinase TR-FRET assay CDK2/CycE1; assay type: biochemical; settings: enzyme 0.6 nM, ATP 82 μM, read-out: CDK2 cyclinE1 activity assay: IC50
Method in brief: as §4

CDK2/CycA2 [8] = target: T2, CDK2/CycA2; test: In vitro kinase TR-FRET assay CDK2/CycA2; assay type: biochemical; settings: enzyme 3 nM, ATP 27 μM, read-out: CDK2 cyclinA2 activity assay: IC50
Method in brief: as §4

T1 sequence (P06493 whole entry): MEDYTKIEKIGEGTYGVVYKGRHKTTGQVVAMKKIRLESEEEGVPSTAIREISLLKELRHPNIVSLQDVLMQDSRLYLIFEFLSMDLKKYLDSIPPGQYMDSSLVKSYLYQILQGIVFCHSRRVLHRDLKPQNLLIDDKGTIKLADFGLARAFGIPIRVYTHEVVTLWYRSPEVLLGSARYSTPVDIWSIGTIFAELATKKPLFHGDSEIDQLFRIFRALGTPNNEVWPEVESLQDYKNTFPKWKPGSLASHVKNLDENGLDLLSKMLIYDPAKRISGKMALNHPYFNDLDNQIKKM
T1 sequence (P14635 whole entry partner): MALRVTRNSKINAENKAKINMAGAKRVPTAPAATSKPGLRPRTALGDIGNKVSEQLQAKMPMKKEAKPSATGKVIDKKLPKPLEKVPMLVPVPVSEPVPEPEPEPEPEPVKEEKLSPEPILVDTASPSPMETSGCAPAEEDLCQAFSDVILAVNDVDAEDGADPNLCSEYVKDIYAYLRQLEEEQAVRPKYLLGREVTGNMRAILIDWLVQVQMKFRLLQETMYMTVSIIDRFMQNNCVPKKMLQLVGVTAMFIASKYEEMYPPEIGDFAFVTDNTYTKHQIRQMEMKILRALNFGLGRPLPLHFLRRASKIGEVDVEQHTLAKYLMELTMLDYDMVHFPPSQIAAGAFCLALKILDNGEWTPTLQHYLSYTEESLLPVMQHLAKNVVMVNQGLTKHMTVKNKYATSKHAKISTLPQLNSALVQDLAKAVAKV

IC50 (CDK1/cyclinB [1]) [nM] | IC50 (OVCAR3) [nM] | IC50 (CDK2/CycA2 [2]) [nM] | IC50 (CDK2/CycE1 [3]) [nM] | IC50 (GSK3β [4]) [nM] | IC50 (CDK1/cyclinB [5]) [nM] | IC50 (GSK3β [6]) [nM] | IC50 (CDK2/CycE1 [7]) [nM] | IC50 (CDK2/CycA2 [8]) [nM] | SMILES | IC50 (TOV21G) [nM]
< 50 | ≤ 500 | < 50 | < 50 | 500 to 1000 | – | – | – | – | CC(C)NC(=O)O[C@@H]1CC[C@H](c2cc(Nc3ccc4c(c3)CNS4(=O)=O)n[nH]2)C1 [Example 3, (1R,3S)-3-(3-((1,1-dioxido-2,3-dihydrobenzo[d]isothiazol-5-yl)amino)-1H-pyrazol-5-yl)cyclopentyl isopropylcarbamate] | ≥ 1000
< 50 | ≤ 500 | < 50 | < 50 | 500 to 1000 | – | – | – | – | CC(C)NC(=O)O[C@@H]1CC[C@H](c2cc(Nc3ccc4c(c3)CCNS4(=O)=O)n[nH]2)C1 [Example 2, (1R,3S)-3-(3-((1,1-dioxido-3,4-dihydro-2H-benzo[e][1,2]thiazin-6-yl)amino)-1H-pyrazol-5-yl)cyclopentyl isopropylcarbamate] | ≥ 1000
– | 500 to 1000 | – | – | – | 50 to 500 | 50 to 500 | < 50 | < 50 | CC(C)NC(=O)O[C@@H]1CC[C@H](c2cc(Nc3ccc4c(c3)C(C)(C)CS4(=O)=O)n[nH]2)C1 [Example 21, (1R,3S)-3-{5-[(3,3-dimethyl-1,1-dioxo-2,3-dihydro-1λ^6-benzothiophen-5-yl)amino]-2H-pyrazol-3-yl}cyclopentyl (prop-2-ylamino)methanoate] | ≥ 1000
– | ≤ 500 | – | – | – | 50 to 500 | 50 to 500 | < 50 | < 50 | CC(C)NC(=O)O[C@@H]1CC[C@H](c2cc(Nc3cccc4c3CNS4(=O)=O)n[nH]2)C1 [Example 46, (1R,3S)-3-(3-((1,1-dioxido-2,3-dihydrobenzo[d]isothiazol-4-yl)amino)-1H-pyrazol-5-yl)cyclopentyl isopropylcarbamate] | 500 to 1000
50 to 500 | ≥ 1000 | < 50 | < 50 | 50 to 500 | – | – | – | – | CC(C)NC(=O)O[C@@H]1CC[C@H](c2cc(Nc3ccc4c(=O)[nH]n(C)c4c3)n[nH]2)C1 [Example 1, (1R,3S)-3-(3-((1-methyl-3-oxo-2,3-dihydro-1H-indazol-6-yl)amino)-1H-pyrazol-5-yl)cyclopentyl isopropylcarbamate] | ≥ 1000
– | ≤ 500 | – | – | – | 50 to 500 | 50 to 500 | < 50 | < 50 | CC(C)NC(=O)O[C@@H]1CC[C@H](c2cc(Nc3nccc4c3CCS4(=O)=O)n[nH]2)C1 [Example 57, (1R,3S)-3-{5-[(1,1-dioxo-2,3-dihydro-1λ^6-thieno[3,2-c]pyridin-4-yl)amino]-2H-pyrazol-3-yl}cyclopentyl (prop-2-ylamino)methanoate] | 500 to 1000
– | ≤ 500 | – | – | – | 50 to 500 | 50 to 500 | < 50 | < 50 | CC(C)NC(=O)O[C@@H]1CC[C@H](c2cc(Nc3ccc4c(n3)CCS4(=O)=O)n[nH]2)C1 [Example 55, (1R,3S)-3-(3-((1,1-dioxido-2,3-dihydrothieno[3,2-b]pyridin-5-yl)amino)-1H-pyrazol-5-yl)cyclopentyl isopropylcarbamate] | ≥ 1000
– | ≤ 500 | – | – | – | 50 to 500 | 500 to 1000 | < 50 | < 50 | CC(C)NC(=O)O[C@@H]1CC[C@H](c2cc(Nc3cccc4c3CCCS4(=O)=O)n[nH]2)C1 [Example 59, (1R,3S)-3-(3-((1,1-dioxidothiochroman-5-yl)amino)-1H-pyrazol-5-yl)cyclopentyl isopropylcarbamate] | 500 to 1000

SMILES | IC50 (CDK1/cyclinB [1]) [nM] | IC50 (OVCAR3) [nM] | IC50 (CDK2/CycA2 [2]) [nM] | IC50 (CDK2/CycE1 [3]) [nM] | IC50 (GSK3β [4]) [nM] | IC50 (CDK1/cyclinB [5]) [nM] | IC50 (GSK3β [6]) [nM] | IC50 (CDK2/CycE1 [7]) [nM] | IC50 (CDK2/CycA2 [8]) [nM] | IC50 (TOV21G) [nM]
CC(C)NC(=O)O[C@@H]1CC[C@H](c2cc(Nc3ccc4c(c3)CCCS4(=O)=O)n[nH]2)C1 [Example 26, (1R,3S)-3-(3-((1,1-dioxidothiochroman-6-yl)amino)-1H-pyrazol-5-yl)cyclopentyl isopropylcarbamate] | – | ≤ 500 | – | – | – | 50 to 500 | 50 to 500 | < 50 | < 50 | ≥ 1000
